Measurements published in patent US6942963B1, “Methods for identifying treatments for neurotoxicity in Alzheimer's disease caused by β-amyloid peptides” (Massachusetts Institute of Technology, priority 1997, dated 2005).
Entries after “also recorded” stand apart in the source; their conditions may differ. Like-named read-outs stand apart in the source and are kept apart here. Non-standard residues stand in square brackets, D forms with d. Residues, ends and D or L forms follow the SMILES beside them.

Experiments:
[1] = system: βAP1-42-induced calcium influx, hNT cells; assay: βAP1-42 (Aβ1-42) aggregate-induced calcium influx in hNT cells: effect of decoy peptides and channel blockers; format: cell-based, human; conditions: for effect on βAP1-42 calcium influx: βAP1-42 25 μM coincubated with equimolar decoy peptide at 37° C. for 44 hours; for inhibition of calcium influx caused by aggregated Aβ1-42: summary statement, concentration not given
βAP1-42 = molecular target: T1, βAP1-42 (Homo sapiens, UniProt P05067); assay: Aggregation rate of βAP1-42 by light scattering at 500 nm; format: biochemical; conditions: decoy peptide at 1:1 molar ratio, Tyrode's/2 mM Ca^2+, light scattering 500 nm
T1 construct: βAP1-42 (Aβ1-42); purchased Quality Control Biochemicals; host or cells: synthetic peptide

βAP25-35 = molecular target: T2, βAP25-35 (Homo sapiens, UniProt P05067); assay: Aggregation rate of βAP25-35 by light scattering at 500 nm; format: biochemical; conditions: decoy peptide at approximately equimolar concentration, Tyrode's/2 mM Ca^2+, light scattering 500 nm
T2 construct: made in house; host or cells: chemical peptide synthesis (BioPolymers Laboratory, MIT), HPLC purified

hNT cells [2] = assay: Internal calcium concentration [Ca2+]int in hNT cells (fura-2) on exposure to β-amyloid peptide or test agent alone; format: cell-based, human; conditions: hNT cells, decoy peptide alone at 20 μM, filtered stocks, Tyrode's/2 mM Ca
[3] = system: βAP25-35-induced calcium influx, hNT cells; assay: βAP25-35-induced calcium influx in hNT cells: effect of channel antagonists and decoy peptides; format: cell-based, human; conditions: for effect on βAP25-35 calcium influx at molar ratio: filtered stocks; for effect on increase in internal calcium concentration due to βAP25-35: decoy peptide mixed with βAP25-35 at ratio 1:1 (20 μM+20 μM), hNT cells
[4] = format: physicochemical; conditions: water
hNT cells [5] = assay: Membrane depolarization of hNT cells by aggregated Aβ1-42 (DiBAC4(3) fluorescence); format: cell-based, human; conditions: for % ΔF in presence of addition / Δ EM in presence of addition: aggregated Aβ1-42 20 μM plus the named addition, [Ca^2+] 2 mM, Na^+; for inhibition of membrane depolarization by aggregated Aβ1-42: simultaneous presence, separately or together, summary statement
Experimental: Changes in membrane potential were measured using the fluorescent potentiometric probe DiBAC4(3), (Molecular Probes, Inc., Eugene, Oreg.). This dye, bis-(1,3-dibutylbarbituric acid)trimethine oxonol, detects membrane depolarization, because it enters depolarized cells and binds to intracellular proteins or membranes. […] Hyperpolarization results in extrusion of the anionic dye and thus a decrease in fluorescence. Our measurements use two dyes, fura-2 and DiBAC4(3), since these dyes have excitation wavelengths that are far apart, but have similar emission wavelengths. DiBAC4(3) was added to fura-2AM loaded hNT cells at a concentration of 100 nM in Tyr2Ca. Rapidly alternating measurements of fura-2 (excited at 340 & 380 nm) and DiBAC4(3) (excited at 490 nm) were performed using emission at 516 nm. Both dyes were measured using the special “Fura2-Fluo3” filter set 7400 from Chroma Technology (Brattleboro, Vt.), a Zeiss Axiovert 100 inverted microscope and a photometry system (model “Delta Ram” from Photon Technology International, Inc., Monmouth Junction, N.J.).
The bis-oxonol dye DiBAC4(3) was used as an indicator of transmembrane electrical potential changes (Langheinrich and Daut, J. Physiol. 502:397-408, 1997) when our hNT cells were treated with, for example, the β-amyloid peptide Aβ1-42. The use of this dye enabled us to monitor groups of 5-15 neurons, rather than single cells as would be the case with patch clamping methods. We expected great variability from cell to cell, as was found in our earlier patch clamp work (Sanderson et al., Brain Res. 744:7-14, 1997). The method has been used by many laboratories for the determination of membrane potentials in different cell types. Fluorescence is increased upon membrane depolarization as more dye enters the cytosol, resulting in increased binding to proteins (Braiuner et al., Biochim. Biophys. Acta 771:[…], 1984). Partitioning of bis-oxonol dye between the plasma membrane and the cytosol follows the Nernst equation (Langheinrich and Daut, 1997). Unless otherwise indicated, all measurements were carried out in Tyrode's solution containing 2 mM Ca.
We calibrated the gross fluorescence as a function of membrane potential by treating a culture of hNT neurons, bathed in Tyrode's 2Ca buffer with the usual 3 mM K^+, containing 97 nM DiBAC4(3), with Tyrode's 2Ca buffer containing 40 mM KCl. We measured the gross fluorescence at excitation=490 nm and emission=510 nm for the depolarization by KCl and for depolarization by the Aβ1-42 peptide. We used the formula proposed by Langheinrich and Daut, 1997: % ΔF=(1−Fmin/Fmax)*100=ΔEMmV
where Fmin=fluorescence before treatment, Fmax=fluorescence during treatment, ΔEM mV is the change in membrane potential brought about by the treatment. The calculation based on the expected depolarization by changing from 3 mM KCl to 40 MM KCl gave a value of ΔEM=3.8 mV/1% ΔF.
Groups of hNT neuronal cells (5-17) were exposed to Aβ1-42 (20 μM) that had been incubated at 37° C. for 48 hours; 97 nM DiBAC4(3) was present. Fluorescence was measured as described above; Ex=490 nm, Em=510 nm.

[6] = system: voltage-gated calcium channels; assay: Previous patch-clamp experiments on β-amyloid peptide calcium influx; format: cell-based

T1 sequence (P05067 672-713): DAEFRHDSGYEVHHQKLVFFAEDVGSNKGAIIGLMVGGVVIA

Row | Molecule | effect on βAP1-42 calcium influx ([1]; hNT cells) | effect on aggregation rate of βAP25-35 (βAP25-35) | effect of decoy peptide by itself on cytosolic calcium concentrations (hNT cells [2]) | effect on increase in internal calcium concentration due to βAP25-35 [3] | inhibition of calcium influx caused by aggregated Aβ1-42 [1] | % ΔF in presence of addition (hNT cells [5]) [%] | Δ EM in presence of addition (hNT cells [5]) | inhibition of membrane depolarization by aggregated Aβ1-42 (hNT cells [5]) | other results
1 | ^+NH3.T.P.I.R^+.T.P.A.P.A.COO^− (H-[dT][dP][dI][dR][dT][dP][dA][dP][dA]-OH; also: modified) [DP16] | reduced or abolished the effect of βAP1-42 on the calcium influx | reduced the aggregation rate of βAP25-35 |  |  |  |  |  |  | reduction of aggregation rate of βAP1-42 (βAP1-42): about 50%
2 | ^+NH3-TVIR^+TIAAA-COO^− (TVIRTIAAA) [DP8] | reduced or abolished the effect of βAP1-42 on the calcium influx | did not reduce the aggregation rate of βAP25-35 | no effect on cytosolic calcium concentrations | reduced or abolished the increase in the internal calcium concentration |  |  |  |  | effect on βAP25-35 calcium influx at molar ratio ([3]; DP8:βAP25-35 0.2:1 (5 mM DP8+20 mM βAP25-35)): modestly reduced; effect on βAP25-35 calcium influx at molar ratio ([3]; DP8:βAP25-35 1:1 (10 mM DP8+10 mM βAP25-35)): reduce or abolish the effect of the β-amyloid peptide; effect on βAP25-35 calcium influx at molar ratio ([3]; DP8:βAP25-35 2:1 (20 mM DP8+11 mM βAP25-35)): reduce or abolish the effect of the β-amyloid peptide
3 | CC[C@@H](C)[C@@H](N)C(=O)N[C@H](C)C(=O)N[C@H](C)C(=O)NCC(=O)N[C@@H](C(=O)N[C@@H](C(=O)NCC(=O)NCC(=O)NCC(=O)O)[C@H](C)O)[C@H](C)CC [DP1, ^+NH3-IAAGITGGG-COO^−] (H-[dI][dA][dA]G[dI][dT]GGG-OH) |  |  | raise cytosolic calcium concentrations somewhat | reduced or abolished the increase in the internal calcium concentration |  |  |  |  | solubility [4]: water soluble
4 | [Cl][Cd][Cl] [cadmium chloride] |  |  |  |  |  |  |  |  | effect on membrane depolarization by aggregated Aβ1-42 (hNT cells [5]): did not prevent membrane depolarization; block of β-amyloid peptide calcium influx [6]: did not block the calcium influx
5 | N#Cc1cc2c(cc1[N+](=O)[O-])=NC(=O)C(=O)N=2 [CNQX, 6-cyano-7-nitroquinoxaline-2,3-dione] |  |  |  |  | inhibited | 17.0 | +64.6 mV | not inhibited | [Ca^2+]int when antagonist added after βAP25-35 exposure ([3]; cells first exposed to 21 μM βAP25-35 (270% of control), then βAP25-35 plus CNQX 22 μM): fell to control levels; block of calcium influx into hNT neuronal cells caused by βAP25-35 ([3]; concentration not stated): can be blocked; effect on βAP25-35-induced calcium influx ([3]; βAP25-35 21 μM, CNQX at 22 μM, applied together): completely prevented; effect on calcium influx / cytosolic calcium caused by aggregated Aβ1-42 ([1]; hNT cells, aggregated Aβ1-42, 20 μM CNQX added after desensitization): completely inhibited; also recorded: lowers the remaining calcium level to the original control value; effect on membrane depolarization (DiBAC4(3) fluorescence plateau) by aggregated Aβ1-42 (hNT cells [5]; hNT cells, CNQX (20 μM) added after Aβ1-42aggr): little change in fluorescence; also recorded: remained unchanged; also recorded: did not significantly change fluorescence
6 | D-AP5 |  |  |  |  | inhibited | 10.4 | +39.5 mV | not inhibited | effect on calcium influx caused by aggregated Aβ1-42 ([1]; hNT cells, aggregated 20 μM Aβ1-42, D-AP5 50 μM): largely, but not completely, abolished calcium influx; also recorded: does inhibit calcium influx; effect on membrane depolarization by aggregated Aβ1-42 (hNT cells [5]; hNT cells, D-AP5 50 μM): did not interfere with the depolarization phenomenon; also recorded: does not block membrane depolarization
